Some test systems named below: PC-3 prostate; IGROV1 ovarian; UACC-62 melanoma; NCI/ADR-RES ovarian; HCT-15 colon; RXF 393 renal; OVCAR-5 ovarian; SK-OV-3 ovarian; 786-0 renal; MOLT-4 leukemia; SR leukemia.
Common to all, as to assay: NCI tumour cell line growth inhibition, 48 h

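Where inhibition never reached the appropriate level, the endpoint shown equals the highest concentration tested. Otherwise, values were interpolated linearly from a five-concentration, 48-hour dose response in 96-well plates. TGI marks complete inhibition of growth.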

As for `COc1ccc(/C=C2\N=C(SC)NC2=O)cc1`, the TGI with PC-3 prostate, with IGROV1 ovarian, in the assay with UACC-62 melanoma, in the assay with NCI/ADR-RES ovarian, in the assay with HCT-15 colon and in the assay on RXF 393 renal was over 100 µM each time. Further, the TGI with OVCAR-5 ovarian, in the assay with SK-OV-3 ovarian, with 786-0 renal and with MOLT-4 leukemia was over 100 µM each time.
For `O=C(O)c1ccc(OCc2nc3cc(C(F)(F)F)ccc3nc2-c2ccccc2)cc1`, the TGI with PC-3 prostate, with SR leukemia, in the assay on IGROV1 ovarian, in the assay with UACC-62 melanoma, in the assay with NCI/ADR-RES ovarian and in the assay on HCT-15 colon was over 100 µM each time. In addition, the TGI in the assay on RXF 393 renal, in the assay with OVCAR-5 ovarian and in the assay on 786-0 renal was over 100 µM throughout.
Turning to `O=C1c2ccccc2C2(c3ccc(Cl)cc3)N[C@H]3CCCC[C@@H]3N12` (stereo partly specified), the TGI with PC-3 prostate, in the assay with SR leukemia, in the assay on IGROV1 ovarian, in the assay with UACC-62 melanoma, with NCI/ADR-RES ovarian and with HCT-15 colon was over 100 µM in each case. The TGI with RXF 393 renal, in the assay with SK-OV-3 ovarian, in the assay with 786-0 renal and in the assay on MOLT-4 leukemia was over 100 µM throughout.
For the compound `CC(=O)OCC1OC(n2c3c(cc(C#N)c2=S)CCCCC3)C(OC(C)=O)C(OC(C)=O)C1OC(C)=O` (stereo unspecified), the TGI in the assay on PC-3 prostate, in the assay on SR leukemia, with IGROV1 ovarian, in the assay with UACC-62 melanoma, in the assay on NCI/ADR-RES ovarian and in the assay on HCT-15 colon was over 100 µM throughout. In addition, the TGI in the assay on RXF 393 renal, with OVCAR-5 ovarian, with 786-0 renal and in the assay on MOLT-4 leukemia was over 100 µM each time.
`CC1CCCC(CC(=O)O)(CC(=O)O)C1` (stereo unspecified): the TGI in the assay on PC-3 prostate, in the assay on SR leukemia, in the assay with IGROV1 ovarian, in the assay on UACC-62 melanoma, in the assay with NCI/ADR-RES ovarian and in the assay on HCT-15 colon was over 100 µM each time. Besides, the TGI in the assay on OVCAR-5 ovarian, in the assay with 786-0 renal and in the assay with MOLT-4 leukemia was over 100 µM throughout.
As to `C=CCOc1ccc(C2C(C(=O)OCC)C(=O)CC(C)(O)C2C(=O)OCC)cc1OC` (stereo unspecified), the TGI in the assay with PC-3 prostate, with SR leukemia, with IGROV1 ovarian, in the assay with UACC-62 melanoma, in the assay on NCI/ADR-RES ovarian and with HCT-15 colon was over 100 µM each time. Further, the TGI in the assay on RXF 393 renal, in the assay with OVCAR-5 ovarian, with 786-0 renal and in the assay on MOLT-4 leukemia was over 100 µM each time.
For the compound `COC1C=COC2(C)Oc3c(C)c(O)c4c(O)c(c(C5SCCS5)c(O)c4c3C2=O)NC(=O)C(C)=C/C=C\C(C)C2OC(C)(C)OC(C2C)C(C)C(OC(C)=O)C1C` (stereo unspecified), the TGI in the assay on PC-3 prostate was over 100 µM; in the assay with IGROV1 ovarian it was 30.7 µM; in the assay on UACC-62 melanoma it was 15 µM; in the assay with NCI/ADR-RES ovarian it was over 100 µM; in the assay with HCT-15 colon it was 38.4 µM; in the assay on RXF 393 renal, 30 µM. Moreover, the TGI was over 100 µM with OVCAR-5 ovarian, over 100 µM in the assay with SK-OV-3 ovarian, 44 µM with 786-0 renal and over 100 µM with MOLT-4 leukemia.
For the compound `CSc1ncnc2c1ncn2CCC#N`, the TGI in the assay with PC-3 prostate, with SR leukemia, in the assay on IGROV1 ovarian, in the assay on NCI/ADR-RES ovarian, with RXF 393 renal and in the assay with OVCAR-5 ovarian was over 100 µM each time. In addition, the TGI in the assay on SK-OV-3 ovarian, in the assay on 786-0 renal and with MOLT-4 leukemia was over 100 µM each time.
Turning to `COc1cccc(/C=N/n2c(C)n[nH]c2=O)c1`, the TGI with PC-3 prostate, in the assay on UACC-62 melanoma, in the assay with NCI/ADR-RES ovarian, in the assay on HCT-15 colon, with RXF 393 renal and with OVCAR-5 ovarian was over 100 µM throughout. For the same compound, the TGI with SK-OV-3 ovarian, in the assay with 786-0 renal and with MOLT-4 leukemia was over 100 µM each time.
For `C=C([C@@]1(O)C[C@H]2[C@H](CCC2(OC)OC)[C@@H]2c3ccccc3O[C@@H]21)[Si](C)(C)C`, the TGI in the assay on PC-3 prostate, with SR leukemia, with IGROV1 ovarian, with UACC-62 melanoma, in the assay with NCI/ADR-RES ovarian and in the assay on HCT-15 colon was over 100 µM each time. In addition, the TGI in the assay on OVCAR-5 ovarian, in the assay on SK-OV-3 ovarian, in the assay on 786-0 renal and with MOLT-4 leukemia was over 100 µM in each case.
For `CC1=NNC(=O)C1C(CC(=O)c1c[nH]c2ccccc12)C(=O)O` (stereo unspecified), the TGI with PC-3 prostate, with IGROV1 ovarian, in the assay on UACC-62 melanoma, with NCI/ADR-RES ovarian, in the assay with HCT-15 colon and in the assay on RXF 393 renal was over 100 µM each time. Moreover, the TGI with OVCAR-5 ovarian, in the assay on SK-OV-3 ovarian, with 786-0 renal and in the assay with MOLT-4 leukemia was over 100 µM each time.
For `C=C(Cl)C(C)(Cl)CCC(Br)C(C)(C)Cl` (stereo unspecified), the TGI in the assay with PC-3 prostate is over 100 µM; in the assay on SR leukemia, 93.6 µM; in the assay on IGROV1 ovarian it was 90.9 µM; in the assay on UACC-62 melanoma, 30.9 µM; in the assay with NCI/ADR-RES ovarian it was 92.1 µM; in the assay with RXF 393 renal, 30.3 µM. Moreover, the TGI in the assay with OVCAR-5 ovarian was 47.7 µM; in the assay on SK-OV-3 ovarian, 39.2 µM; with 786-0 renal it was 31.3 µM; in the assay on MOLT-4 leukemia, over 100 µM.
As to `CC(C(O)Cc1ccccc1)N(C)N=Nc1ccc([N+](=O)[O-])cc1` (stereo unspecified), the TGI in the assay with PC-3 prostate worked out at 40.5 µM; in the assay with IGROV1 ovarian, 43.4 µM; with UACC-62 melanoma it was 37.6 µM; in the assay on NCI/ADR-RES ovarian, 39.9 µM; with HCT-15 colon it was 61 µM; with RXF 393 renal it was 23.7 µM. In addition, the TGI is 76.1 µM with OVCAR-5 ovarian, 63.9 µM with SK-OV-3 ovarian, 38.6 µM in the assay on 786-0 renal and over 100 µM in the assay on MOLT-4 leukemia.
Consider `O=C1/C(=C/c2ccc(Cl)cc2)CSc2ccccc21`, for which the TGI was 44.5 µM with PC-3 prostate; over 100 µM in the assay with SR leukemia; 66.4 µM in the assay on IGROV1 ovarian; 14.6 µM with UACC-62 melanoma; 34.5 µM in the assay with NCI/ADR-RES ovarian; over 100 µM in the assay on HCT-15 colon. For the same compound, the TGI with RXF 393 renal is 36.3 µM; with SK-OV-3 ovarian it was over 100 µM; in the assay on 786-0 renal, 39.3 µM; with MOLT-4 leukemia, over 100 µM.

For the origin of these results see PubChem BioAssay (NCI).
